Experiment [1] concerns the target T1, human prostaglandin H2 synthase type II (COX-2) (Homo sapiens, UniProt P35354).
T1 sequence (P35354 18-604): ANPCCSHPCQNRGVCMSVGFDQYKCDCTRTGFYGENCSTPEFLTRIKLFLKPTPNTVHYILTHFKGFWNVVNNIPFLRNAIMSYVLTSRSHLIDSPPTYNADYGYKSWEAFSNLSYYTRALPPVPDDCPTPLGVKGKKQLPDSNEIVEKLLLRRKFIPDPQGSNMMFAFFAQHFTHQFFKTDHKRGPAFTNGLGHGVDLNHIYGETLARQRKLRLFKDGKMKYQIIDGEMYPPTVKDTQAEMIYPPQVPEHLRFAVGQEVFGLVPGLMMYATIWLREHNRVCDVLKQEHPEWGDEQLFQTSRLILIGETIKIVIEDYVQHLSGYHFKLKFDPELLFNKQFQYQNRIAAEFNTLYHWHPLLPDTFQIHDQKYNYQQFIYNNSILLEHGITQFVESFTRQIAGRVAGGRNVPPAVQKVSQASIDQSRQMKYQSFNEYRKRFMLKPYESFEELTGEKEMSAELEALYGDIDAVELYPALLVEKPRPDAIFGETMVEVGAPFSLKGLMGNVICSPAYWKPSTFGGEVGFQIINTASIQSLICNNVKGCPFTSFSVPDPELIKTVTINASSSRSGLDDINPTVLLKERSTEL
The experiment is described as follows: Human prostaglandin H2 synthase type II (COX-2) whole cell assay (ECV-304 cells, PGE2 by radioimmunoassay). Set-up: endogenous in cells; host or cells: ECV-304. The settings on record: for IC50: read-out: P2: COX 2 Whole Cell IC50; for inhibition at 10 µM / inhibition at 3 µM: read-out: P1: COX 2 Whole Cell % Inhibition; for inhibition at 3 µM: @3 μM (superscript a). It is filed as cell-based. The protocol:
HUMAN PROSTAGLANDIN H2 SYNTHASE TYPE II (COX-2) WHOLE CELL ASSAY (MULTIPLE CONCENTRATIONS)
Procedures 1 and 2 were used to determine the ability of the compounds to inhibit human prostaglandin H2 synthase type II (COX-2) in a whole cell assay at multiple concentrations as follows:
Approximately 28 h later, […] PMA and […] ionomycin (both final concentrations) are added to each well and incubated for an additional 16 h. Vehicle or test compounds in the amount of […] are incubated with the cells for five minutes prior to initiation of COX-2 enzyme activity by the addition of 30 μM arachidonic acid. Ten minutes later, an aliquot of the supernatant is withdrawn and the amount of PGE2 present quantitated by radioimmunoassay. Activity, reported as percent inhibition of PGE2 produced, is calculated as follows: [formula]

The next experiment deals with T2, COX-1 (Homo sapiens, UniProt P23219).
T2 construct: Remove the platelet-rich plasma (PRP) and dilute the PRP 1:20 with 0.9% NaCl; endogenous in cells; host or cells: human platelets (platelet-rich plasma of one volunteer)
T2 sequence (P23219 24-599): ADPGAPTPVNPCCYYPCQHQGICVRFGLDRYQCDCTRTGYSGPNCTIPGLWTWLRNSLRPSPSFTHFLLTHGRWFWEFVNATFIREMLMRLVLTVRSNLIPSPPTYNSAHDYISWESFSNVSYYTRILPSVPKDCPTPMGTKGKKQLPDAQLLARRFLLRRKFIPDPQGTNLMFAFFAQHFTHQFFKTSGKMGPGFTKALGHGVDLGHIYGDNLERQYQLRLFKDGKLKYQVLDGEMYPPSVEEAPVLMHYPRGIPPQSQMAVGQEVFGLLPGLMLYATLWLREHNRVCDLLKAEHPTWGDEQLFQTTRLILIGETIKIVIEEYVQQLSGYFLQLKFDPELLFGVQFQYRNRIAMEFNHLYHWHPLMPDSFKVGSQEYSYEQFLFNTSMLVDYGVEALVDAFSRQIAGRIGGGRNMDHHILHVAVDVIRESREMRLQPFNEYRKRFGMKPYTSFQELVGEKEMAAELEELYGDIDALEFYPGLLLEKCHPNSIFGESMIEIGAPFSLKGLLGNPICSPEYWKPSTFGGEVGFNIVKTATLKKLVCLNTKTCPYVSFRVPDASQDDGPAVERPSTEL
In words: Human platelet thromboxane B2 production (via COX-1). It is filed as cell-based. Conditions: human platelets, TXB2 production; read-out: P5: COX 1 Human Platelet IC50. The protocol: HUMAN […] THROMBOXANE B2 PRODUCTION (via COX-1)
Procedure 5 was used to determine thromboxane B2 (TXB2) production (via COX-1) in human platelets as follows:
Draw blood from one volunteer into heparinized tubes then spin at RT for 15 to 20 minutes at 1,000 RPM. Remove the platelet-rich plasma (PRP) and dilute the PRP 1:20 with 0.9% NaCl containing 14.4U heparin/mL. Add 180 μL of the diluted PRP to each well of a 96-well plate and incubate at 37° C. for 5 minutes. Then add 20 μL vehicle (HBSS with 1% DMSO) or drug and incubate for 15 minutes at 37° C. Add 10 μl calcium ionophore and incubate 15 minutes at 37° C. Stop the reaction on slush ice for 5 minutes and assay supernatants immediately for TXB2 production via RIA or EIA.
Prepare all drugs at 10 mM in DMSO by diluting the drug in HBSS at a 1.100 ratio with 1% DMSO to 100 μM. Add 20 μl to PRP (1:10 ratio) to obtain 10 μM final concentration. The calcium ionophore is prepared by using 7 mg/mL free acid calcium ionophore in DMSO, which is warmed until the ionophore goes into solution. Just prior to use, dilute the solution 1:25 with HBSS.

In experiment [2] the target is T1, human prostaglandin H2 synthase type II (COX-2). The experiment is described as follows: Human prostaglandin H2 synthase type II (hCOX-2) homogenate assay (transfected COS-7 cells, PGE2 formation). The class given is biochemical. Set-up: expressed in transfected cells; host or cells: COS-7 (African Green Monkey Kidney). Conditions: COS-7 homogenate; read-out: P4: COX 2 Homogenized Cell IC50. The protocol:
HUMAN PROSTAGLANDIN H2 SYNTHASE TYPE II (hCOX-2) HOMOGENATE ASSAY (SINGLE CONCENTRATION)
Procedures 3 and 4 were used to assess COX-2 activity in a homogenized cell assay as follows:
COS-7 (African Green Monkey Kidney) cells are maintained in a suitable medium, and are trypsinized and plated at a density of 1×10^6 cells/well of a 6 well plate prior to assay. Approximately 24 hours later, cells are transiently transfected with a plasmid containing the human COX-2 gene using the lipofectamine method. Two days later, the cell-free homogenate is prepared by subjecting the cells to a polytron followed by centrifugation at 9,000×g. COX activity, initiated by the addition of […] arachidonic acid to the 9,000×g supernatant, is monitored in the presence of vehicle or drug. Product (PGE2) formation is quantitated by radioimmunoassay. Activity, reported as percent inhibition of PGE2 produced, is calculated as follows: [formula]

In general, IC50 refers to the point on the concentration scale where inhibition reaches its midpoint. Consider `CS(=O)(=O)c1ccc(-n2nc3c(c2-c2ccc(F)cc2)CCC2OC32)cc1` (stereo not drawn) [Example 48e], for which the IC50 in experiment [1] was 6.28 µM; on COX-1, > 10 µM.

As for `Clc1ccc(-c2nn(-c3ccccc3)c3c2CCCC3)cc1` [Example 6-1b, 3-(4-Chlorophenyl)-4,5,6,7-tetrahydro-1-phenyl-1H-indazole], the IC50 in experiment [1] was 0.62 µM; on COX-1, 10 µM.

What is called inhibition is the percentage by which the read-out fell short of the control. On to `Clc1ccc(-c2nn(-c3ccc(Cl)cc3)c3c2CCCCC3)cc1` [Example 13, 3-(4-Chlorophenyl)-1-(4-chlorophenyl)-cycloheptano-[1,2-d]-pyrazole], for which, in experiment [1], the inhibition at 10 µM worked out at 3% and the IC50 was 10 µM.

Take `Clc1ccc(-c2c3c(nn2-c2ccccc2)CCCC3)cc1` [Example 6-1a, 3-(4-Chlorophenyl)-4,5,6,7-tetrahydro-2-phenyl-2H-indazole]: the results for the IC50 (in experiment [1]; at COX-1) were 0.57 µM and > 10 µM, respectively.

On to `COc1ccc(-n2nc3c(c2-c2ccc(F)cc2)CC2(CC3)OCCO2)cc1` [Example 30c], for which the IC50 in experiment [1] was > 10 µM; in experiment [2], 20.3 µM.

Turning to `c1ccc(-c2nn(-c3ccccc3)c3c2CCCCC3)cc1` [Example 7, 1,3-Diphenyl-4,5,6,7,8,-[5H]cycloheptano-[1,2-d]-pyrazole], the IC50 in experiment [1] worked out at 0.17 µM; at COX-1, 0.12 µM.

As for `CS(=O)(=O)c1ccc(-n2nc3c(c2-c2ccc(Cl)cc2)CCC2OC32)cc1` (stereo not drawn) [Example 48d], the IC50 in experiment [1] stood at 9.58 µM.

As for `CS(=O)(=O)c1ccc(-n2nc(-c3ccc(F)cc3)c3ccccc32)cc1` [Example 32i], the inhibition at 3 µM in experiment [1] was 12%.

As to `c1ccc(-c2nn(-c3ccccc3)c3c2CCCC3)cc1` [Example 6, 1,3-Diphenyl-cyclohexa-[1,2-d]-pyrazole], the IC50 was determined as 0.57 µM in experiment [1] and 0.49 µM at COX-1.

`CS(=O)(=O)c1ccc(-n2nc3c(c2-c2ccc(Cl)cc2)CCC(O)C3)cc1` (stereo not drawn) [Example 49d]: the figures for the IC50 (in experiment [1]; on COX-1) were 10 µM and > 10 µM, respectively.

For the molecule `CS(=O)(=O)c1ccc(-n2nc3c(c2-c2ccc(F)cc2)CC2(CC3)OCCO2)cc1` [Example 30b], the IC50 was > 10 µM in experiment [1] and 21.7 µM in experiment [2].

Consider `CS(=O)(=O)c1ccc(-n2nc3ccccc3c2-c2ccc(Cl)cc2)cc1` [Example 32d], for which the IC50 came out at 0.97 µM in experiment [1] and 16 µM on COX-1.

For `CS(=O)(=O)c1ccc(-n2nc(-c3ccc(C(F)(F)F)cc3)c3c2C=CCC3)cc1` [Example 32g], the IC50 (in experiment [1]; at COX-1) was > 10 µM throughout.

Consider `COc1ccc(-n2nc3c(c2-c2ccc(F)cc2)CCCCC3)cc1` [Example 13-1g], for which the IC50 in experiment [1] was determined as 3.64 µM; in experiment [2] it was 8.1 µM.

As for `CS(=O)(=O)c1ccc(-n2nc3c(c2-c2ccc(Cl)cc2)CCC=C3)cc1` [Example 4b], the figures for the IC50 (in experiment [1]; at COX-1) were 2.33 µM and > 10 µM, respectively.

For the molecule `Clc1ccc(-c2nn(-c3ccc(Cl)cc3)c3c2CCC3)cc1` [Example 2, 1,3-Di-(4-Chlorophenyl)-cyclopenta-[1,2-d]-pyrazole], the inhibition at 10 µM in experiment [1] came to 0%.

Consider `CS(=O)(=O)c1ccc(-n2nc3c(c2-c2ccc(F)cc2)CCCCC3)cc1` [Example 13-1h], for which, in experiment [1], the IC50 was determined as 10 µM.

As for `CS(=O)(=O)c1ccc(-n2nc3c(c2-c2ccc(F)cc2)CCC=C3)cc1` [Example 5b], in experiment [1], the IC50 was determined as 4.75 µM.

`Clc1ccc(-c2nn(-c3ccccc3)c3c2CCC3)cc1` [Example 3-1]: the IC50 is 2.59 µM in experiment [1] and 10 µM at COX-1.

Consider `Fc1ccc(-n2nc(-c3ccc(Cl)cc3)c3c2-c2c([nH]c4ccc(F)cc24)CC3)cc1` [Example 32f], for which the results for the IC50 (in experiment [1]; at COX-1) were 6.2 µM and 0.64 µM, respectively.

Take `CS(=O)(=O)c1ccc(-n2nc3c(c2-c2ccc(Cl)cc2)CCCCC3)cc1` [Example 13-1d]: the IC50 in experiment [1] is 9.41 µM; in experiment [2] it was 1.5 µM; at COX-1, > 10 µM.

Consider `CS(=O)(=O)c1ccc(-c2c3ccccc3nn2-c2ccc(F)cc2)cc1` [Example 32e], for which the IC50 in experiment [1] is 0.32 µM; on COX-1 it was > 10 µM.

With `COc1ccc(-c2nn(-c3ccccc3)c3c2CCCCC3)cc1` [Example 13-2b, 3-(4-Methoxy)-1-phenyl-cycloheptano-[1,2-d]-pyrazole], the IC50 in experiment [1] worked out at 1.24 µM; on COX-1, 10 µM.

Consider `Clc1ccc(-c2c3c(nn2-c2ccccc2)CCCCC3)cc1` [Example 13-1f], for which the IC50 in experiment [1] was 1.38 µM; at COX-1, 5.5 µM.

Regarding `Cc1ccc(-n2nc3c(c2-c2ccc(Cl)cc2)CCCCC3)cc1` [Example 13-1e], the IC50 in experiment [1] was 1.22 µM; on COX-1, 10 µM.

Regarding `Fc1ccc(-n2nc(-c3ccc(Cl)cc3)c3c2CCCCC3)cc1` [Example 13-1b, 3-(4-Chlorophenyl)-1-(4-fluorophenyl)-cycloheptano-[1,2-d]-pyrazole], in experiment [1], the inhibition at 10 µM was found to be 59% and the IC50 was > 10 µM. The IC50 at COX-1 is > 10 µM.

Take `CS(=O)(=O)c1ccc(-n2nc(-c3ccc(F)cc3)c3c2C=CCC3)cc1` [Example 32h]: in experiment [1], the inhibition at 3 µM worked out at 13%.

With `COc1ccc(-n2nc3c(c2-c2ccc(Cl)cc2)CCCCC3)cc1` [Example 13-1c], the IC50 in experiment [1] is 19.5 µM; on COX-1, > 10 µM.

On to `CS(=O)(=O)c1ccc(-n2nc(-c3ccc(Cl)cc3)c3c2CCCC3)cc1` [Example 30e], for which the inhibition at 3 µM in experiment [1] worked out at 21%.

In the case of `CS(=O)(=O)c1ccc(-n2nc3c(c2-c2ccc(Cl)cc2)CCC(=O)C3)cc1` [Example 52b], the values for the IC50 (in experiment [1]; at COX-1) were 1.44 µM and > 10 µM, respectively.

With `CS(=O)(=O)c1ccc(-n2nc3c(c2-c2ccc(Cl)cc2)CCCC3)cc1` [Example 30d], the figures for the IC50 (in experiment [1]; at COX-1) were 0.82 µM and > 10 µM, respectively.

The values above are taken from US6083969A, “1,3- and 2,3-diarylcycloalkano and cycloalkeno pyrazoles as selective inhibitors of cyclooxygenase-2 and antiinflammatory agents” (Ortho-McNeil Pharaceutical, Inc., priority 1999, dated 2000).
